Measurements published in patent US12559529B2, “NPY2 receptor agonists” (Boehringer Ingelheim International GmbH, priority 2019, dated 2026).
pKi: −log10 of the molar value. *1 amine or outer side, *2 acyl side, *3 side chain or, on linkers, in order; H or OH if unused. Where a SMILES comes first, the peptide text is derived from it. Side-chain parts run from the residue outwards. The star is where a group is joined. C18 diacid = O=C(O)CCCCCCCCCCCCCCCCC(=O)*; γGlu = O=C(O)[C@H](CCC(=O)[*:2])N[*:1]; Isovaleryl = CC(C)CC(=O)*; AEEA = NCCOCCOCC(=O)O

Legend:
[1] = target: T1, Human Neuropeptide Y2 Receptor (Homo sapiens, UniProt P49146); assay: Radioligand binding competition assay (RLB); settings: for pKi: Table 3, human 125I-PYY (1-36) 0.02 nM, Y2 receptor membranes, read-out: Ki
T1 construct: purchased CHEMICON HTS066M
T1 sequence (P49146 1-381): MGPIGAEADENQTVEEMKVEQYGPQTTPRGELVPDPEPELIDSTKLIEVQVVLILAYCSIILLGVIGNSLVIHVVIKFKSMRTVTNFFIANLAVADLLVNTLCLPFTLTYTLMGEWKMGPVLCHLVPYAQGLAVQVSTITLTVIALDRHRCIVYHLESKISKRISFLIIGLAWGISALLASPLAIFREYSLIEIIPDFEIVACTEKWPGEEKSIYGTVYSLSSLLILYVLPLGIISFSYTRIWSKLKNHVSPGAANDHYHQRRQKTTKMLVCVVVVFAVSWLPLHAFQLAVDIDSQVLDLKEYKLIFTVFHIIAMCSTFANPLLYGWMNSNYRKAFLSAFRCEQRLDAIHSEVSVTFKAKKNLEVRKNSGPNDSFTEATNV
Method in brief: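 Membranes (0.5 μg/well) and test peptides, serially diluted from 1 mM DMSO stocks, were incubated 2 hours at room temperature in HEPES buffer pH 7.4 with Mg, Ca and ovalbumin.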

[2] = target: T1, Human Neuropeptide Y2 Receptor; assay: Activity (RLB) after incubation in solutions at different pH values; format: binding; settings: apparent Ki of filtrate after 2 h in buffer
Method: The filtration RLB assay was carried out in 96-well plates in a final volume of 100 μl per well. Freeze-dried test peptides were dissolved in 100% dimethyl sulfoxide (DMSO) to stock solutions of 1 mM and serial dilutions were performed in assay buffer (50 mM HEPES, 5 mM MgCl2, 1 mM CaCl2), pH 7.4) containing 0.2% ovalbumin. […] Next, 80 μL membranes (HTS066M, ChemiSCREEN™ Human Neuropeptide Y2 Receptor Membrane Preparation, CHEMICON) were added to each well to give a final protein concentration of 0.5 μg/well. The plates were sealed and incubated at room temperature for 2 hours in a plate shaker set at 400 rpm. The incubation was stopped by vacuum filtration onto 0.5% poly-ethylene amine (PEI) presoaked GF/C filters using a 96-well FilterMate™ harvester (Perkin Elmer) followed by four washes with 300 μl/well ice-cold wash buffer (50 mM HEPES, 500 mM NaCl, pH7.4). Filter plates were then dried for 60 min at room temperature and the bottom of the plates was sealed with backing tape UniFilter-96. Finally, 50 μl/well scintillation counter cocktail (Microscint20, Packard) was added and the radioactivity was counted in the Packard TopCount NXT scintillation counter. IC50 values (the half maximal inhibitory concentration of the agonist) were calculated by nonlinear regression analysis of sigmoidal dose-response curves.
Peptides (as TFA salts) were weighed out in a filter unit (Mini-UniPrep Syringeless Filter 0.45 μm, Whatman), and 0.1 M sodium diphosphate buffer at pH 6.4 or 7.4, respectively, or 0.2 M TRIS buffer at pH 8.3 was added to achieve 10 mg/ml final concentration. The peptide was (partially) dissolved by shaking the filter unit horizontally at approx. 400 rpm for 2 hours at room temperature. The sample was filtered to remove any insoluble particles.

[3] = system: normal NMRI mice; assay: Effect on acute food intake in normal NMRI mice; format: in vivo; settings: male NMRI mice, 10 nmol/kg subcutaneously once
Method in brief: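 Male NMRI mice acclimatized in an HM-2 real-time food intake monitoring system, fasted 6 h before dark phase. Single subcutaneous dose of 10 nmol/kg peptide given 1 h before dark; n=7-8. Food intake expressed as % of vehicle group (50 mM phosphate pH7, 5% Mannitol).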

pKi [1] | Ki ([1]; Table 8, from DMSO stock, read-out: hY2R RLB Ki (nM) DMSO) [nM] | pKi ([2]; pH6.1-6.2, assumed 10 mg/ml, read-out: RLB 6 (pH6.1-6.2)) | pKi ([2]; pH7.1-7.2, assumed 10 mg/ml, read-out: RLB 7 (pH7.1-7.2)) | pKi ([2]; pH8.1-8.2, assumed 10 mg/ml, read-out: RLB 8 (pH8.1-8.2)) | Compound | Acute Food Intake 24 h [% vehicle] [3] [% vehicle]
9.54 | 4.6 | 8.42 | 8.36 | 8.64 | CC(C)CC(=O)N[C@@H](C)C(=O)N1CCC[C@H]1C(=O)N[C@@H](CCC(=O)O)C(=O)N[C@@H](CCCCNC(=O)COCCOCCNC(=O)COCCOCCNC(=O)CC[C@H](NC(=O)CCCCCCCCCCCCCCCCC(=O)O)C(=O)O)C(=O)N1CCC[C@H]1C(=O)N[C@@H](CCC(=O)O)C(=O)N[C@@H](C)C(=O)N1CCC[C@H]1C(=O)N[C@@H](C)C(=O)N[C@@H](CO)C(=O)N1CCC[C@H]1C(=O)N[C@@H](CCC(=O)O)C(=O)N[C@@H](CCC(=O)O)C(=O)N[C@@H](CC(C)C)C(=O)N[C@@H](CCC(N)=O)C(=O)N[C@@H](CCCNC(=N)N)C(=O)N[C@@H](Cc1ccc(O)cc1)C(=O)N[C@@H](Cc1ccc(O)cc1)C(=O)N[C@H](C(=O)N[C@@H](CCC(=O)O)C(=O)N[C@@H](CC(C)C)C(=O)N[C@@H](CCCNC(=N)N)C(=O)N[C@@H](Cc1c[nH]cn1)C(=O)N[C@@H](Cc1ccc(O)cc1)C(=O)N[C@@H](Cc1ccc(O)cc1)C(=O)N[C@@H](CC(N)=O)C(=O)N[C@@H](Cc1c[nH]c2ccccc12)C(=O)N[C@@H](CC(C)C)C(=O)N[C@H](C(=O)N[C@@H](CCCNC(=N)N)C(=O)N[C@@H](CCC(N)=O)C(=O)N[C@@H](CCCNC(=N)N)C(=O)N[C@@H](Cc1ccc(O)cc1)C(N)=O)[C@@H](C)O)C(C)C [Compound 29, N{alpha-4}-(3-methylbutanoyl)-N{epsilon-7}-[2-(2-{2-[2-(2-{2-[(4S)-4-carboxy-4-(17-carboxyheptadecanamido)butanamido]ethoxy}ethoxy)acetamido]ethoxy}ethoxy)acetamido]-[4A,7K,9E,10A,11P,18Q,22V,23E,28Y,30W,31L]hPYY (4-36)] (Isovaleryl-APEK([AEEA-AEEA-γGlu-C18 diacid])PEAPASPEELQRYYVELRHYYNWLTRQRY-NH2) | 
8.09 |  |  |  |  | CC(C)CC(=O)N[C@@H](C)C(=O)N1CCC[C@H]1C(=O)N[C@@H](CCC(=O)O)C(=O)N[C@@H](CCCCNC(=O)COCCOCCNC(=O)COCCOCCNC(=O)CC[C@H](NC(=O)CCCCCCCCCCCCCCCCC(=O)O)C(=O)O)C(=O)N1CCC[C@H]1C(=O)N[C@@H](CCC(=O)O)C(=O)N[C@@H](CCC(=O)O)C(=O)N[C@@H](CC(=O)O)C(=O)N[C@@H](CO)C(=O)N[C@@H](CCC(=O)O)C(=O)N1CCC[C@H]1C(=O)N[C@@H](CCC(=O)O)C(=O)N[C@@H](CCC(=O)O)C(=O)N[C@@H](CC(C)C)C(=O)N[C@@H](CCC(N)=O)C(=O)N[C@@H](CCCNC(=N)N)C(=O)N[C@@H](Cc1ccc(O)cc1)C(=O)N[C@@H](Cc1ccc(O)cc1)C(=O)N[C@H](C(=O)N[C@@H](CO)C(=O)N[C@@H](CC(C)C)C(=O)N[C@@H](CCCNC(=N)N)C(=O)N[C@@H](Cc1c[nH]cn1)C(=O)N[C@@H](Cc1ccc(O)cc1)C(=O)N[C@@H](Cc1ccc(O)cc1)C(=O)N[C@@H](CC(N)=O)C(=O)N[C@@H](Cc1c[nH]c2ccccc12)C(=O)N[C@@H](CC(C)C)C(=O)N[C@H](C(=O)N[C@@H](CCCNC(=N)N)C(=O)N[C@@H](CCC(N)=O)C(=O)N[C@@H](CCCNC(=N)N)C(=O)N[C@@H](Cc1ccc(O)cc1)C(N)=O)[C@@H](C)O)C(C)C [Compound 209, N{alpha-4}-(3-methylbutanoyl)-N{epsilon-7}-[2-(2-{2-[2-(2-{2-[(4S)-4-carboxy-4-(17-carboxyheptadecanamido)butanamido]ethoxy}ethoxy)acetamido]ethoxy}ethoxy)acetamido]-[4A,7K,9E,12S,13E,18Q,22V,28Y,30W,31L]hPYY (4-36)] | 50
8.53 |  |  |  |  | CC[C@H](C)[C@H](NC(=O)[C@H](CCC(=O)O)NC(=O)[C@H](CCC(=O)O)NC(=O)[C@@H]1CCCN1C(=O)[C@H](CO)NC(=O)[C@H](C)NC(=O)[C@H](CCC(=O)O)NC(=O)[C@H](CCC(=O)O)NC(=O)[C@H](CCC(=O)O)NC(=O)[C@@H]1CCCN1C(=O)[C@H](CCCCNC(=O)COCCOCCNC(=O)COCCOCCNC(=O)CC[C@H](NC(=O)CCCCCCCCCCCCCCCCC(=O)O)C(=O)O)NC(=O)[C@H](CCC(=O)O)NC(=O)[C@@H]1CCCN1C(=O)[C@H](C)NC(=O)CC(C)C)C(=O)N[C@@H](CCC(N)=O)C(=O)N[C@@H](CCCNC(=N)N)C(=O)N[C@@H](Cc1ccc(O)cc1)C(=O)N[C@@H](Cc1ccc(O)cc1)C(=O)N[C@H](C(=O)N[C@@H](CO)C(=O)N[C@@H](CC(C)C)C(=O)N[C@@H](CCCNC(=N)N)C(=O)N[C@@H](Cc1c[nH]cn1)C(=O)N[C@@H](Cc1ccc(O)cc1)C(=O)N[C@@H](Cc1ccc(O)cc1)C(=O)N[C@@H](CC(N)=O)C(=O)N[C@@H](Cc1c[nH]c2ccccc12)C(=O)N[C@@H](CC(C)C)C(=O)N[C@H](C(=O)N[C@@H](CCCNC(=N)N)C(=O)N[C@@H](CCC(N)=O)C(=O)N[C@@H](CCCNC(=N)N)C(=O)N[C@@H](Cc1ccc(O)cc1)C(N)=O)[C@@H](C)O)C(C)C [Compound 241, N{alpha-4}-(3-methylbutanoyl)-N{epsilon-7}-[2-(2-{2-[2-(2-{2-[(4S)-4-carboxy-4-(17-carboxyheptadecanamido)butanamido]ethoxy}ethoxy)acetamido]ethoxy}ethoxy)acetamido]-[4A,7K,9E,11E,17I,18Q,22V,28Y,30W,31L]hPYY (4-36)] | 45
8.74 |  |  |  |  | CC(C)CC(=O)N[C@@H](C)C(=O)N1CCC[C@H]1C(=O)N[C@@H](CCC(=O)O)C(=O)N[C@@H](CCCCNC(=O)COCCOCCNC(=O)COCCOCCNC(=O)CC[C@H](NC(=O)CCCCCCCCCCCCCCCCC(=O)O)C(=O)O)C(=O)N1CCC[C@H]1C(=O)N[C@@H](CCC(=O)O)C(=O)N[C@@H](CCC(=O)O)C(=O)N[C@@H](CC(=O)O)C(=O)N[C@@H](C)C(=O)N[C@@H](CCC(=O)O)C(=O)N1CCC[C@H]1C(=O)N[C@@H](C)C(=O)N[C@@H](CCC(=O)O)C(=O)N[C@@H](CC(C)C)C(=O)N[C@@H](CCC(N)=O)C(=O)N[C@@H](CCCNC(=N)N)C(=O)N[C@@H](Cc1ccc(O)cc1)C(=O)N[C@@H](Cc1ccc(O)cc1)C(=O)N[C@H](C(=O)N[C@@H](CO)C(=O)N[C@@H](CC(C)C)C(=O)N[C@@H](CCCNC(=N)N)C(=O)N[C@@H](Cc1c[nH]cn1)C(=O)N[C@@H](Cc1ccc(O)cc1)C(=O)N[C@@H](Cc1ccc(O)cc1)C(=O)N[C@@H](CC(N)=O)C(=O)N[C@@H](Cc1c[nH]c2ccccc12)C(=O)N[C@@H](CC(C)C)C(=O)N[C@H](C(=O)N[C@@H](CCCNC(=N)N)C(=O)N[C@@H](CCC(N)=O)C(=O)N[C@@H](CCCNC(=N)N)C(=O)N[C@@H](Cc1ccc(O)cc1)C(N)=O)[C@@H](C)O)C(C)C [Compound 244, N{alpha-4}-(3-methylbutanoyl)-N{epsilon-7}-[2-(2-{2-[2-(2-{2-[(4S)-4-carboxy-4-(17-carboxyheptadecanamido)butanamido]ethoxy}ethoxy)acetamido]ethoxy}ethoxy)acetamido]-[4A,7K,9E,13E,15A,18Q,22V,28Y,30W,31L]hPYY (4-36)] | 49
